# Numbered stars: 1 amine (or outer) side, 2 acyl side, 3 side chain; on linkers, the order of the positions; unused ones are H or OH. Bridge positions count the residues as written; N and C are the ends. Square brackets hold non-standard residues; d marks the D form. Peptide text beside a SMILES is read from it. * marks the point of attachment. hPhe(3-Cl-4-CF3) = N[C@@H](CCc1ccc(C(F)(F)F)c(Cl)c1)C(=O)O; hPhe(3-F,4-CF3) = N[C@@H](CCc1ccc(C(F)(F)F)c(F)c1)C(=O)O; NMePhe(4-CF3) = CN[C@@H](Cc1ccc(C(F)(F)F)cc1)C(=O)O; NMeAla(4-thiazolyl) = CN[C@@H](Cc1cscn1)C(=O)O; X105 = C[C@@](Cc1cccc(I)c1)(N[*:1])C(=O)[*:2]; NMePhe(4-Cl) = CN[C@@H](Cc1ccc(Cl)cc1)C(=O)O; NMePhe(4-Me) = CN[C@@H](Cc1ccc(C)cc1)C(=O)O; NMeGly(cPent) = CN[C@H](C(=O)O)C1CCCC1; Phe(3-I) = N[C@@H](Cc1cccc(I)c1)C(=O)O; X67 = O=C([C@@H]1CCC[C@H]1N[*:1])[*:2]; NMeCha = CN[C@@H](CC1CCCCC1)C(=O)O; NMehLeu = CN[C@@H](CCC(C)C)C(=O)O; NMeChg = CN[C@H](C(=O)O)C1CCCCC1; NMeI = CC[C@H](C)[C@H](NC)C(=O)O; NMeD = CN[C@@H](CC(=O)O)C(=O)O; CH2CONHtBu = CC(C)(C)NC(=O)C*; NMeL = CN[C@@H](CC(C)C)C(=O)O; Cba = N[C@@H](CC1CCC1)C(=O)O; dNMeAbu = CC[C@@H](NC)C(=O)O; NMeV = CN[C@H](C(=O)O)C(C)C; d(β3hA) = C[C@@H](N)CC(=O)O; NMeS = CN[C@@H](CO)C(=O)O; Morpholide = C1CN(*)CCO1; NMeA = CN[C@@H](C)C(=O)O; NMeAib = CNC(C)(C)C(=O)O; Nle = CCCC[C@H](N)C(=O)O; Piperidide = C1CCN(*)CC1; dNMeA = CN[C@H](C)C(=O)O; Ac5c = NC1(C(=O)O)CCCC1; Aze = O=C(O)[C@@H]1CCN1; Abu = CC[C@H](N)C(=O)O; Ac4c = NC1(C(=O)O)CCC1; Aib = CC(C)(N)C(=O)O; Isopentyl = CC(C)CC*; Sar = CNCC(=O)O; Propyl = CCC*
# Test system: Human pancreatic cancer cell line AsPC-1 (G12D mutation Kras)
# Assay: AsPC-1 cell growth inhibition (AsPC-1 CGI)
# Type: cell-based
# Details: read-out: AsPC-1 cell growth inhibition, 50% growth inhibitory concentration (IC50 value); 96 hours, CellTiter-Glo, values classified in ranges
# Protocol: Test compounds were serially dilated with dimethyl sulfoxide, and 200 nL was then dispensed to a U-bottom 96-well plate using Labcyte Echo. […] The cell suspension was dispensed to a. plate containing a test compound at 100 μL per well and incubated at 37° C. in a 5% carbon dioxide gas incubator. 96 hours later, 80 μL of CellTiter-Glo (Promega) was added to each well and fluorescence was measured.
row,SMILES,IC50 [nM]
1,CC[C@H](C)[C@@H]1NC(=O)[C@H](CC(C)C)N(C)C(=O)C[C@@H](C)NC(=O)[C@H](C(C)C)N(C)C(=O)C2(CCCC2)NC(=O)[C@@H]2CCCN2C(=O)[C@H](CCc2ccc(C(F)(F)F)c(Cl)c2)NC(=O)CN(C)C(=O)[C@H](CC2CCCCC2)N(C)C(=O)[C@@H]2CCCN2C(=O)CN(C)C1=O [Compound 1050] (cyclo([Ac5c][NMeV][d(β3hA)][NMeL]I[Sar]P[NMeCha][Sar][hPhe(3-Cl-4-CF3)]P)),> 500
2,CC[C@@H]1NC(=O)[C@H](Cc2cccc(I)c2)NC(=O)CN(C)C(=O)[C@H](Cc2ccc(Cl)cc2)N(C)C(=O)CN(C)C(=O)CN(C)C(=O)[C@H]([C@@H](C)CC)NC(=O)[C@H](CC(C)C)N(C)C(=O)C[C@@H](C(=O)N2CCCCC2)N(C)C(=O)[C@H](CC(C)C)NC(=O)C(C)(C)N(C)C1=O [Compound 457] ([NMeL]I[Sar][Sar][NMePhe(4-Cl)][Sar][Phe(3-I)][Abu][NMeAib]L[NMeD]-Piperidide; lactam N-11),> 500
3,CC[C@H](C)[C@@H]1NC(=O)[C@H](CC(C)C)N(C)C(=O)C[C@@H](C(=O)N2CCCCC2)N(C)C(=O)[C@H](CC(C)C)N(C)C(=O)C(C)(C)NC(=O)[C@H](COCC(=O)NC(C)(C)C)N(C)C(=O)[C@H](CCc2ccc(C(F)(F)F)c(Cl)c2)NC(=O)CN(C)C(=O)[C@H](COCCC(C)C)N(C)C(=O)CN(C)C(=O)CN(C)C1=O [Compound 1480] ([NMeL]I[Sar][Sar][NMeS](Isopentyl)[Sar][hPhe(3-Cl-4-CF3)][NMeS](CH2CONHtBu)[Aib][NMeL][NMeD]-Piperidide; lactam N-11),> 500
4,CCCC[C@@H]1NC(=O)[C@](C)(Cc2cccc(I)c2)NC(=O)CN(C)C(=O)[C@H](Cc2ccc(Cl)cc2)N(C)C(=O)CN(C)C(=O)CN(C)C(=O)[C@H]([C@@H](C)CC)NC(=O)[C@H](CC(C)C)N(C)C(=O)C[C@@H](C(=O)N2CCCCC2)N(C)C(=O)[C@H](CC(C)C)NC(=O)C(C)(C)N(C)C1=O [Compound 1202] ([NMeL]I[Sar][Sar][NMePhe(4-Cl)][Sar][X105][Nle][NMeAib]L[NMeD]-Piperidide; lactam N-11),> 500
5,CC[C@H](C)[C@@H]1NC(=O)[C@H](C)N(C)C(=O)C[C@@H](C(=O)N2CCCCC2)N(C)C(=O)[C@H](C(C)C)N(C)C(=O)C2(CCCC2)NC(=O)[C@@H]2CCCN2C(=O)[C@H](CCc2ccc(C(F)(F)F)c(Cl)c2)NC(=O)CN(C)C(=O)[C@H](CC2CCCCC2)N(C)C(=O)[C@@H]2CCN2C(=O)[C@H](CCC(C)C)N(C)C1=O [Compound 1595] ([NMeA]I[NMehLeu][Aze][NMeCha][Sar][hPhe(3-Cl-4-CF3)]P[Ac5c][NMeV][NMeD]-Piperidide; lactam N-11),> 500
6,CCCOC[C@H]1C(=O)N(C)CC(=O)N[C@@H](CCc2ccc(C(F)(F)F)c(Cl)c2)C(=O)N2CCC[C@H]2C(=O)NC2(CCCC2)C(=O)N(C)[C@@H](C2CCCC2)C(=O)N(C)[C@H](C(=O)N2CCOCC2)CC(=O)N(C)[C@@H](CC(C)C)C(=O)N[C@@H]([C@@H](C)CC)C(=O)N(C)[C@@H](C)C(=O)N2CC[C@H]2C(=O)N1C [Compound 974] ([NMeL]I[NMeA][Aze][NMeS](Propyl)[Sar][hPhe(3-Cl-4-CF3)]P[Ac5c][NMeGly(cPent)][NMeD]-Morpholide; lactam N-11),≤ 20
7,CC(C)C[C@H]1C(=O)N[C@@H](CC2CCC2)C(=O)N(C)CC(=O)N(C)CC(=O)N(C)[C@@H](CC2CCCCC2)C(=O)N(C)CC(=O)N[C@@H](CCc2ccc(C(F)(F)F)c(Cl)c2)C(=O)N2CCC[C@H]2C(=O)NC2(CCCC2)C(=O)N(C)[C@@H](C2CCCCC2)C(=O)N(C)[C@H](C(=O)N2CCCCC2)CC(=O)N1C [Compound 1759] ([NMeL][Cba][Sar][Sar][NMeCha][Sar][hPhe(3-Cl-4-CF3)]P[Ac5c][NMeChg][NMeD]-Piperidide; lactam N-11),> 500
8,CC[C@@H]1C(=O)NC2(CCCC2)C(=O)N(C)[C@@H](C(C)C)C(=O)N(C)[C@H](C(=O)N2CCCCC2)CC(=O)N(C)[C@@H](CC(C)C)C(=O)N[C@@H]([C@@H](C)CC)C(=O)N(C)[C@@H](C)C(=O)N2CC[C@H]2C(=O)N(C)[C@@H](CC2CCCCC2)C(=O)N(C)CC(=O)N[C@@H](CCc2ccc(C(F)(F)F)c(Cl)c2)C(=O)N1C [Compound 1438] ([NMeL]I[NMeA][Aze][NMeCha][Sar][hPhe(3-Cl-4-CF3)][dNMeAbu][Ac5c][NMeV][NMeD]-Piperidide; lactam N-11),> 500
9,CC[C@H](C)[C@@H]1NC(=O)[C@H](C)N(C)C(=O)C[C@@H](C)NC(=O)[C@H](C2CCCC2)N(C)C(=O)C2(CCCC2)NC(=O)[C@@H]2CCCN2C(=O)[C@H](CCc2ccc(C(F)(F)F)c(Cl)c2)NC(=O)[C@@H](C)N(C)C(=O)[C@H](Cc2ccc(C(F)(F)F)cc2)N(C)C(=O)CN(C)C(=O)CN(C)C1=O [Compound 1520] (cyclo([Ac5c][NMeGly(cPent)][d(β3hA)][NMeA]I[Sar][Sar][NMePhe(4-CF3)][dNMeA][hPhe(3-Cl-4-CF3)]P)),> 500
10,CC[C@H](C)[C@@H]1NC(=O)[C@H](CC(C)C)N(C)C(=O)C[C@@H](C(=O)N2CCCCC2)N(C)C(=O)[C@H](C2CCCCC2)N(C)C(=O)C2(CCCC2)NC(=O)[C@@H]2CCCN2C(=O)[C@H](CCc2ccc(C(F)(F)F)c(Cl)c2)NC(=O)CN(C)C(=O)[C@H](C)N(C)C(=O)CN(C)C(=O)CN(C)C1=O [Compound 1681] ([NMeL]I[Sar][Sar][NMeA][Sar][hPhe(3-Cl-4-CF3)]P[Ac5c][NMeChg][NMeD]-Piperidide; lactam N-11),> 500
11,CC[C@H](C)[C@@H]1NC(=O)[C@H](CC(C)C)N(C)C(=O)C[C@@H](C)NC(=O)[C@H](CCC(C)C)N(C)C(=O)C2(CCCC2)NC(=O)[C@@H]2CCCN2C(=O)[C@H](CCc2ccc(C(F)(F)F)c(Cl)c2)NC(=O)CN(C)C(=O)[C@H](CC2CCCCC2)N(C)C(=O)CN(C)C(=O)CN(C)C1=O [Compound 586] (cyclo([Ac5c][NMehLeu][d(β3hA)][NMeL]I[Sar][Sar][NMeCha][Sar][hPhe(3-Cl-4-CF3)]P)),> 500
12,"CC[C@H](C)[C@@H]1NC(=O)[C@H](CC(C)C)N(C)C(=O)C[C@@H](C)NC(=O)[C@H](CC(C)C)N(C)C(=O)C2(CCC2)NC(=O)[C@@H]2CCCN2C(=O)[C@H](CCc2ccc(C(F)(F)F)c(F)c2)NC(=O)CN(C)C(=O)[C@H](CC2CCCCC2)N(C)C(=O)CN(C)C(=O)CN(C)C1=O [Compound 133] (cyclo([Ac4c][NMeL][d(β3hA)][NMeL]I[Sar][Sar][NMeCha][Sar][hPhe(3-F,4-CF3)]P))",> 500
13,CC[C@H](C)[C@@H]1NC(=O)[C@H](CC(C)C)N(C)C(=O)C[C@@H](C(=O)N(C)C)N(C)C(=O)[C@H]([C@@H](C)CC)N(C)C(=O)[C@H](C(C)C)NC(=O)[C@H](Cc2cscn2)N(C)C(=O)[C@H](CCc2ccc(C(F)(F)F)c(Cl)c2)NC(=O)CN(C)C(=O)[C@H](Cc2ccc(C)cc2)N(C)C(=O)[C@@H]2CCN2C(=O)[C@H](C)N(C)C1=O [Compound 982] ([NMeL]I[NMeA][Aze][NMePhe(4-Me)][Sar][hPhe(3-Cl-4-CF3)][NMeAla(4-thiazolyl)]V[NMeI][NMeD]-NMe2; lactam N-11),> 500
14,CC[C@H](C)[C@@H]1NC(=O)[C@H](CC(C)C)N(C)C(=O)[C@@H]2CCC[C@H]2NC(=O)[C@H](C(C)C)N(C)C(=O)C2(CCCC2)NC(=O)[C@@H]2CCCN2C(=O)[C@H](CCc2ccc(C(F)(F)F)c(Cl)c2)NC(=O)CN(C)C(=O)[C@H](CC2CCCCC2)N(C)C(=O)CN(C)C(=O)CN(C)C1=O [Compound 347] (cyclo([Ac5c][NMeV][X67][NMeL]I[Sar][Sar][NMeCha][Sar][hPhe(3-Cl-4-CF3)]P)),> 500

# — patent US20240148821A1, “PHARMACEUTICAL USE OF CYCLIC PEPTIDE COMPOUND” (CHUGAI SEIYAKU KABUSHIKI KAISHA, priority 2021, published 2024)
